Results from US11702404B2, “GLP-1R modulating compounds” (priority 2019, dated 2023).
pEC50: −log10 of the molar value.

Legend:
[1] = molecular target: GLP-1R (Homo sapiens, UniProt P43220); assay: GLP-1R activation: cAMP increase in CHO cells stably expressing GLP-1R; assay type: cell-based; conditions: cAMP increase, CHO cells stably expressing GLP-1R, 10 point dose response, 30 minutes incubation; read-out: EC50
[2] = Microsomal stability, human liver microsomes (predicted hepatic clearance); conditions: predicted from in vitro microsomal stability data

Sequence of GLP-1R (P43220 24-463): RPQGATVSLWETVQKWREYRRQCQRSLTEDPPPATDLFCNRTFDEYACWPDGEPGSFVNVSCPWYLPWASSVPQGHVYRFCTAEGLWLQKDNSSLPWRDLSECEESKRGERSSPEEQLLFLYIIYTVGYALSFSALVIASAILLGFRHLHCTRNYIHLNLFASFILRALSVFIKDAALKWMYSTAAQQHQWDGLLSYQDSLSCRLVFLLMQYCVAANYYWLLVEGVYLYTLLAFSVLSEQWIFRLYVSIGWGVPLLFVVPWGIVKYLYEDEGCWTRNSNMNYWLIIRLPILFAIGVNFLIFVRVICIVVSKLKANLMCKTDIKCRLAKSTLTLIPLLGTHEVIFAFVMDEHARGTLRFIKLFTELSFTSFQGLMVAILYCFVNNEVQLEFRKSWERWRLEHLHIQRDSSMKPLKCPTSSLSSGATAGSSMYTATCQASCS

| Structure (SMILES) | pEC50 [1] | Predicted Hepatic Clearance (Pred. Cl.) [2] [mL/min/kg] |
| --- | --- | --- |
| N#Cc1ccc(COc2cccc(-c3cc(F)c(Cc4nc5ccc(C(=O)O)cc5n4Cc4ncccn4)cc3F)n2)c(F)c1 [Example 269, 2-(4-(6-((4-cyano-2-fluorobenzyl)oxy)pyridin-2-yl)-2,5-difluorobenzyl)-1-(pyrimidin-2-ylmethyl)-1H-benzo[d]imidazole-6-carboxylic acid] | 7.29 | 5.83 |
| N#Cc1ccc(COc2cccc(-c3cc(F)c(Cc4nc5ccc(C(=O)O)cc5n4CC4(F)COC4)cc3F)n2)c(F)c1 [Example 270, 2-(4-(6-((4-cyano-2-fluorobenzyl)oxy)pyridin-2-yl)-2,5-difluorobenzyl)-1-((3-fluorooxetan-3-yl)methyl)-1H-benzo[d]imidazole-6-carboxylic acid] | 8.74 | 4.5 |
| N#CCC1(Cn2c(Cc3cc(F)c(-c4cccc(OCc5ccc(C#N)cc5F)n4)cc3F)nc3ccc(C(=O)O)nc32)CC1 [Example 273, 2-(4-(6-((4-cyano-2-fluorobenzyl)oxy)pyridin-2-yl)-2,5-difluorobenzyl)-3-((1-(cyanomethyl)cyclopropyl)methyl)-3H-imidazo[4,5-b]pyridine-5-carboxylic acid] | 9.28 | 7 |
| N#Cc1ccc(COc2cccc(-c3cc(F)c(Cc4nc5ccc(C(=O)O)cc5n4CC4(n5cncn5)CC4)cc3F)n2)c(F)c1 [Example 274, 1-((1-(1H-1,2,4-triazol-1-yl)cyclopropyl)methyl)-2-(4-(6-((4-cyano-2-fluorobenzyl)oxy)pyridin-2-yl)-2,5-difluorobenzyl)-1H-benzo[d]imidazole-6-carboxylic acid] | 9.64 | 8 |
| N#Cc1ccc(COc2cccc(-c3ccc(Cc4nc5ccc(C(=O)O)cc5n4CC4(c5ccncc5)CC4)c(F)c3)n2)c(F)c1 [Example 275, 2-(4-(6-((4-cyano-2-fluorobenzyl)oxy)pyridin-2-yl)-2-fluorobenzyl)-1-((1-(pyridin-4-yl)cyclopropyl)methyl)-1H-benzo[d]imidazole-6-carboxylic acid] | 8.26 | 12.2 |
| N#Cc1ccc(COc2cccc(-c3ccc(Cc4nc5c(F)cc(C(=O)O)cc5n4CC4(CF)CC4)cc3F)n2)c(F)c1 [Example 276, 2-(4-(6-((4-cyano-2-fluorobenzyl)oxy)pyridin-2-yl)-3-fluorobenzyl)-4-fluoro-1-((1-(fluoromethyl)cyclopropyl)methyl)-1H-benzo[d]imidazole-6-carboxylic acid] | 9.64 | 6.42 |
| N#Cc1ccc(COc2cccc(-c3ccc(Cc4nc5ccc(C(=O)O)nc5n4CC4(CF)CC4)cc3F)n2)c(F)c1 [Example 277, 2-(4-(6-((4-cyano-2-fluorobenzyl)oxy)pyridin-2-yl)-3-fluorobenzyl)-3-((1-(fluoromethyl)cyclopropyl)methyl)-3H-imidazo[4,5-b]pyridine-5-carboxylic acid] | 8.80 | 7.17 |
| CC(C)(O)[C@H](F)Cn1c(Cc2ccc(-c3cccc(OCc4ccc(C#N)cc4F)n3)cc2F)nc2ccc(C(=O)O)cc21 [Example 278, (R)-2-(4-(6-((4-cyano-2-fluorobenzyl)oxy)pyridin-2-yl)-2-fluorobenzyl)-1-(2-fluoro-3-hydroxy-3-methylbutyl)-1H-benzo[d]imidazole-6-carboxylic acid] | 5.78 | 3 |

Continued, values first:

| pEC50 [1] | Predicted Hepatic Clearance (Pred. Cl.) [2] [mL/min/kg] | Structure (SMILES) |
| --- | --- | --- |
| 8.51 | 8.3 | CC(C)(C#N)Cn1c(Cc2ccc(-c3cccc(OCc4ccc(C#N)cc4F)n3)c(F)c2)nc2ccc(C(=O)O)cc21 [Example 279, 2-(4-(6-((4-cyano-2-fluorobenzyl)oxy)pyridin-2-yl)-3-fluorobenzyl)-1-(2-cyano-2-methylpropyl)-1H-benzo[d]imidazole-6-carboxylic acid] |
| 9.21 | 4 | COCCn1c(Cc2cc(F)c(-c3ccnc(OCc4ccc(C#N)cc4F)n3)cc2F)nc2c(F)cc(C(=O)O)cc21 [Example 280, 2-(4-(2-((4-cyano-2-fluorobenzyl)oxy)pyrimidin-4-yl)-2,5-difluorobenzyl)-4-fluoro-1-(2-methoxyethyl)-1H-benzo[d]imidazole-6-carboxylic acid] |
| 8.64 | 6.7 | N#CCC1(Cn2c(Cc3ccc(-c4ccnc(OCc5ccc(C#N)cc5F)n4)c(F)c3)nc3ccc(C(=O)O)cc32)CC1 [Example 281, 2-(4-(2-((4-cyano-2-fluorobenzyl)oxy)pyrimidin-4-yl)-3-fluorobenzyl)-1-((1-(cyanomethyl)cyclopropyl)methyl)-1H-benzo[d]imidazole-6-carboxylic acid] |
| 8.54 | <1.83 | N#Cc1ccc(COc2cccc(-c3ccc(Cc4nc5ccc(C(=O)O)cc5n4CC4(n5ccnn5)CC4)c(F)c3)n2)c(F)c1 [Example 284, 1-((1-(1H-1,2,3-triazol-1-yl)cyclopropyl)methyl)-2-(4-(6-((4-cyano-2-fluorobenzyl)oxy)pyridin-2-yl)-2-fluorobenzyl)-1H-benzo[d]imidazole-6-carboxylic acid] |
| 8.66 | <1.83 | COCCn1c(Cc2ccc(-c3cccc(OCc4ccc(C#N)cc4F)n3)cc2F)nc2c(F)cc(C(=O)O)cc21 [Example 285, 2-(4-(6-((4-cyano-2-fluorobenzyl)oxy)pyridin-2-yl)-2-fluorobenzyl)-4-fluoro-1-(2-methoxyethyl)-1H-benzo[d]imidazole-6-carboxylic acid] |
| 7.67 | 2.62 | N#Cc1ccc(COc2cccc(-c3ccc(Cc4nc5ccc(C(=O)O)cc5n4CC4(CF)CC4)c(C#N)c3)n2)c(F)c1 [Example 286, 2-(2-cyano-4-(6-((4-cyano-2-fluorobenzyl)oxy)pyridin-2-yl)benzyl)-1-((1-(fluoromethyl)cyclopropyl)methyl)-1H-benzo[d]imidazole-6-carboxylic acid] |
| 9.85 | 10.5 | N#CCC1(Cn2c(Cc3ccc(-c4cccc(OCc5ccc(C#N)cc5F)n4)c(F)c3)nc3c(F)cc(C(=O)O)cc32)CC1 [Example 287, 2-(4-(6-((4-cyano-2-fluorobenzyl)oxy)pyridin-2-yl)-3-fluorobenzyl)-1-((1-(cyanomethyl)cyclopropyl)methyl)-4-fluoro-1H-benzo[d]imidazole-6-carboxylic acid] |
| 9.12 | 5.08 | N#Cc1ccc(COc2cccc(-c3ccc(Cc4nc5c(F)cc(C(=O)O)cc5n4CC4(C(F)F)CC4)cc3F)n2)c(F)c1 [Example 288, 2-(4-(6-((4-cyano-2-fluorobenzyl)oxy)pyridin-2-yl)-3-fluorobenzyl)-1-((1-(difluoromethyl)cyclopropyl)methyl)-4-fluoro-1H-benzo[d]imidazole-6-carboxylic acid] |
| 8.52 | 1.92 | N#Cc1ccc(COc2cccc(-c3ccc(Cc4nc5ccc(C(=O)O)cc5n4CC4(Br)CC4)c(F)c3)n2)c(F)c1 [Example 289, 1-((1-bromocyclopropyl)methyl)-2-(4-(6-((4-cyano-2-fluorobenzyl)oxy)pyridin-2-yl)-2-fluorobenzyl)-1H-benzo[d]imidazole-6-carboxylic acid] |
